Source: patent publication US20240115705A1, “Regulation of Butyrophilin subfamily 3 member A1 (BTN3A1, CD277)” (The J. Gladstone Institutes, a testamentary trust …, priority 2021, published 2024)

System: Daudi-Cas9 cells
Test: Cancer-T cell co-culture genome-wide CRISPR knockout screen (Vγ9Vδ2 T cell killing)
Type: cell-based, human
Conditions: for score: MAGeCK sgRNA test, co-culture screen; for LFC: log-fold change of sgRNA, surviving cells after co-culture vs baseline; for LFC / treat mean: MAGeCK; for treat mean: sgRNA abundance in surviving Daudi-Cas9 KO cells after 24 hours Vγ9Vδ2 T cell co-culture with zoledronate; for high_in_treatment: sgRNA enriched (TRUE) or depleted (FALSE) after T cell co-culture

Row | Substance | score | LFC | treat mean | high_in_treatment
1 | BTN3A1_CTTCTTCAGGAGCGCCCAG: library sgRNA targeting BTN3A1 (listed as DNA, chemistry not fully specified) | 19.78 | 2.2076 | 9150.3 | TRUE
2 | MED26_CCTCGGAACTCACGGCATG: library sgRNA targeting MED26 (as printed in the source, key not given here) | 6.025 | −1.9192 | 1185.6 | FALSE
3 | SNF8_ACCATTGGCGTGGATCCGC: library sgRNA targeting SNF8 (as printed in the source, key not given here) | 6.4788 | −6.2459 | 35.261 | FALSE
4 | TRMT61A_CACGTCACCTTGGAGCCGA: library sgRNA targeting TRMT61A (listed as DNA, chemistry not fully specified) | 6.3388 | −3.6911 | 242.28 | FALSE
5 | BTN2A1_AGCCCCTCATTTCAATGAG: library sgRNA targeting BTN2A1 (listed as DNA, chemistry not fully specified) | 7.0382 | 1.7442 | 1965.3 | TRUE
6 | XPNPEP1_GGACTTGTAGGGATGCACC: library sgRNA targeting XPNPEP1 (as printed in the source, key not given here) | 6.7154 | 1.4173 | 2841.3 | TRUE
7 | IRF1_AGCCGAGATGCTAAGAGCA: library sgRNA targeting IRF1 (as printed in the source, key not given here) | 8.1693 | 1.6173 | 3151.9 | TRUE
8 | IRF1_CTAGGCCGATACAAAGCAG: library sgRNA targeting IRF1 (as printed in the source, key not given here) | 9.7786 | 1.6906 | 4103.9 | TRUE
9 | SHMT2_TGCTCGACTTTTCCGGCCA: library sgRNA targeting SHMT2 (listed as DNA, chemistry not fully specified) | 6.1486 | −3.7292 | 220.66 | FALSE
10 | RAB7A_CGGTTCCAGTCTCTCGGTG: library sgRNA targeting RAB7A (listed as DNA, chemistry not fully specified) | 6.2219 | −4.046 | 175.17 | FALSE
11 | LUM_TAGAAAACTCCAAGATAAA: library sgRNA targeting LUM (listed as DNA, chemistry not fully specified) | 8.61 | 4.64 | 171.75 | TRUE
12 | FCRL2_ACTATTTCTGTAGTACCAA: library sgRNA targeting FCRL2 (listed as DNA, chemistry not fully specified) | 6.1577 | 2.9186 | 417.46 | TRUE
13 | ACAT2_CAAGTGAGTAGAGAAGATC: library sgRNA targeting ACAT2 (listed as DNA, chemistry not fully specified) | 6.1049 | 1.9893 | 1085.8 | TRUE
14 | N6AMT1_AGCAGAAACGTGTCCTCCG: library sgRNA targeting N6AMT1 (listed as DNA, chemistry not fully specified) | 6.0901 | −3.683 | 224.71 | FALSE
15 | BTN2A2_TGTGCACTGGTCTCAGGTA: library sgRNA targeting BTN2A2 (listed as DNA, chemistry not fully specified) | 13.201 | 2.0744 | 4689.1 | TRUE
16 | RPP25L_TGGCTCTGGGTCGGTTGGA: library sgRNA targeting RPP25L (as printed in the source, key not given here) | 6.0209 | −7.7316 | 9.1906 | FALSE
17 | RFXAP_ACGAGGAGACTCACTCGGG: library sgRNA targeting RFXAP (listed as DNA, chemistry not fully specified) | 6.9897 | 2.2103 | 1110.2 | TRUE
18 | BTN3A1_CAGGGCGGCGATCCACCTC: library sgRNA targeting BTN3A1 (listed as DNA, chemistry not fully specified) | 11.298 | 2.049 | 3523.7 | TRUE

Row | Substance | score | LFC | treat mean | high_in_treatment
19 | PSMG4_CACCTGCGCAACCTCGCCG: library sgRNA targeting PSMG4 (listed as DNA, chemistry not fully specified) | 6.1467 | −3.4412 | 279.92 | FALSE
20 | OIP5_TATTCTACCCATGCTGCCC: library sgRNA targeting OIP5 (as printed in the source, key not given here) | 6.4136 | −5.8943 | 45.034 | FALSE
21 | BTN2A1_TCTCCATGCCTGATGCAGA: library sgRNA targeting BTN2A1 (listed as DNA, chemistry not fully specified) | 11.104 | 1.6551 | 5566.5 | TRUE
22 | ALG12_TGCGATCACCACTGGCCCG: library sgRNA targeting ALG12 (listed as DNA, chemistry not fully specified) | 6.0622 | −3.0699 | 374.84 | FALSE
23 | IRF1_GGAAGCATGCTGCCAAGCA: library sgRNA targeting IRF1 (as printed in the source, key not given here) | 8.5638 | 1.6107 | 3499.5 | TRUE
24 | ALCAM_GTGTGCATGCTAGTAACTG: library sgRNA targeting ALCAM (listed as DNA, chemistry not fully specified) | 6.8519 | 1.5404 | 2462.2 | TRUE
25 | MRPS26_CCCCCGGCCGCACACCTGA: library sgRNA targeting MRPS26 (as printed in the source, key not given here) | 7.3571 | −3.3597 | 431.96 | FALSE
26 | BTN3A2_ACGTCACAGCCTCTGACAG: library sgRNA targeting BTN3A2 (listed as DNA, chemistry not fully specified) | 17.862 | 2.2137 | 7396.6 | TRUE
27 | TTC7A_CAGTACGTCATGCTCTCGG: library sgRNA targeting TTC7A (listed as DNA, chemistry not fully specified) | 6.0307 | −5.2629 | 63.697 | FALSE
28 | IFNAR1_TCCATCAGATGCTTGTACG: library sgRNA targeting IFNAR1 (listed as DNA, chemistry not fully specified) | 7.1422 | 1.2274 | 4399.3 | TRUE
29 | MRPL55_CGACTCTACCCCGTGCTGC: library sgRNA targeting MRPL55 (as printed in the source, key not given here) | 6.305 | −4.7404 | 104.65 | FALSE
30 | SPIB_GAGGTCTCGGACAGCGAGT: library sgRNA targeting SPIB (as printed in the source, key not given here) | 7.1579 | 1.2994 | 3907.1 | TRUE
31 | RFXAP_AGACACTTCGGACCCTCCG: library sgRNA targeting RFXAP (listed as DNA, chemistry not fully specified) | 10.922 | 1.5343 | 6378.3 | TRUE
32 | BTN3A1_TGCTGCTTCTTGGGGGAGC: library sgRNA targeting BTN3A1 (listed as DNA, chemistry not fully specified) | 17.532 | 2.0651 | 8413.1 | TRUE
33 | SLC22A3_GCCTTCCTCTTCGTCGGCG: library sgRNA targeting SLC22A3 (listed as DNA, chemistry not fully specified) | 6.0158 | 1.0179 | 4633 | TRUE
34 | RFXAP_CGTTAGGTACCTGTGCGAA: library sgRNA targeting RFXAP (listed as DNA, chemistry not fully specified) | 7.0414 | 1.5428 | 2592.9 | TRUE
35 | BCCIP_AATCTCTTACTGAAGCTGC: library sgRNA targeting BCCIP (listed as DNA, chemistry not fully specified) | 6.3357 | −5.3797 | 64.834 | FALSE
